Data: patent US20170226120A1, “INHIBITORS OF HIF PROLYL HYDROXYLASE” (MERCK SHARP & DOHME CORP., priority 2014, published 2017)

Key:
[1] = Tissue PK profile in rat (liver and plasma drug level); format: in vivo; settings: 10 mg/kg; for concentration at 4 h: in vivo, po; for Kp at 4 h: liver/plasma, 4 hours after PO dosing at 10 mpk, vehicle 0.5% MC, read-out: liver/plasma ratio
Experimental: The tissue PK profile of compounds described in this application were evaluated in rat. The tissue was harvested 4 hours after PO dosing at 10 mpk (vehicle: 0.5% MC; dose volume: 5 mL/Kg) and the drug level was determined. Shown in Table 1 are compound concentrations of selected examples in rat liver and plasma, as well as liver to plasma drug ratio.

human HIF-PHD2 = target: T1, human HIF-PHD2 (Homo sapiens, UniProt Q9GZT9); experiment: HIF-PHD2 inhibition, time resolved fluorescence assay of HIF-1α peptide hydroxylation; format: biochemical; settings: FLAG-tagged full length PHD2; 0.2 μM 2-oxoglutarate, 0.5 μM HIF-1α peptide
T1 construct: FLAG-tagged full length PHD2 expressed in and purified from baculovirus-infected Sf9 cells; FLAG; made in house; host or cells: baculovirus-infected Sf9 cells
T1 sequence (Q9GZT9 whole entry): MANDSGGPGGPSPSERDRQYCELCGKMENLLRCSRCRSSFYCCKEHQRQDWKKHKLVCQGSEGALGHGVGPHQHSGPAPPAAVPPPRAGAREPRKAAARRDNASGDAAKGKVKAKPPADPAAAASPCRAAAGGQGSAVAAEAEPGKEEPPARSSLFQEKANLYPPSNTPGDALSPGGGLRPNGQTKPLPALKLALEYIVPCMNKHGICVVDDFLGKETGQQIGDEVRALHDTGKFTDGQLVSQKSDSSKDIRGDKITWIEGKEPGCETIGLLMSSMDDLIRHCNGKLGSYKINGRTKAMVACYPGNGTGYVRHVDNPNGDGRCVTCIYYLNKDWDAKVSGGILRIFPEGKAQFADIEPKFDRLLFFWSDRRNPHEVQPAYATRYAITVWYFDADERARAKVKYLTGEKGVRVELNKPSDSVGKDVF
Experimental: To each well of a 384-well plate, 1 μL of test compounds in DMSO (final concentration ranging from 0.3 nM to 10 uM) were added into 20 μl of assay buffer (50 mM Tris pH 7.4/0.01% Tween-20/0.1 mg/ml bovine serum albumin/10 μM ferrous sulfate/1 mM sodium ascorbate/20 μg/ml catalase) containing 0.15 μg/ml FLAG-tagged full length PHD2 expressed in and purified from baculovirus-infected Sf9 cells. After a 5 min preincubation at room temperature, the enzymatic reactions were initiated by the addition of 4 μL of substrates {final concentrations of 0.2 μM 2-oxoglutarate and 0.5 μM HIF-1α peptide biotinyl-[…] […] After incubation for 45 minutes at room temperature, the reactions were terminated by the addition of a 25 μL quench/detection mix to a final concentration of 1 mM ortho-phenanthroline, 0.1 mM EDTA, 0.5 nM anti-(His)6 LANCE reagent (Perkin-Elmer Life Sciences), 100 nM AF647-labeled streptavidin (Invitrogen), and 2 μg/ml (His)6-VHL complex {S. Tan Protein Expr. Purif.

Compound | concentration at 4 h ([1]; liver concentration) [nM] | concentration at 4 h ([1]; plasma concentration) [nM] | Kp at 4 h [1] | IC50 (human HIF-PHD2) [nM]
O=C(O)CNC(=O)c1c(O)c2c(n(Cc3ccn(-c4ccccc4)n3)c1=O)COC2 [Example 22, 2-(4-hydroxy-2-oxo-1-((1-phenyl-1H-pyrazol-3-yl)methyl)-1,2,5,7-tetrahydrofuro[3,4-b]pyridine-3-carboxamido)acetic acid] | 816 | 11.8 | 66.6 | –
O=C(O)CNC(=O)c1c(O)c2c(n(Cc3nc(C(F)(F)F)cs3)c1=O)COC2 [Example 21, 2-(4-hydroxy-2-oxo-1-((4-(trifluoromethyl)thiazol-2-yl)methyl)-1,2,5,7-tetrahydrofuro[3,4-b]pyridine-3-carboxamido)acetic acid] | 4770 | 8 | 587 | –
O=C(O)CNC(=O)c1c(O)c2c(n(Cc3ncc(C(F)(F)F)cn3)c1=O)COC2 [Example 9, 2-(4-hydroxy-2-oxo-1-((5-(trifluoromethyl)pyrimidin-2-yl)methyl)-1,2,5,7-tetrahydrofuro[3,4-b]pyridine-3-carboxamido)acetic acid] | 1810 | 37.6 | 43.6 | –
O=C(O)CNC(=O)c1c(O)c2c(n(Cc3nc4ccccc4o3)c1=O)COC2 [Example 46, 2-(1-(benzo[d]oxazol-2-ylmethyl)-4-hydroxy-2-oxo-1,2,5,7-tetrahydrofuro[3,4-b]pyridine-3-carboxamido)acetic acid] | 2070 | 34.5 | 55 | –
O=C(O)CNC(=O)c1c(O)c2c(n(Cc3cnc(C(F)(F)F)nc3)c1=O)COC2 [Example 12, 2-(4-hydroxy-2-oxo-1-((2-(trifluoromethyl)pyrimidin-5-yl)methyl)-1,2,5,7-tctrahydrofuro[3,4-b]pyridine-3-carboxamido)acetic acid] | 775 | 12.3 | 67.3 | –
O=C(O)CNC(=O)c1c(O)c2c(n(Cc3ccc(F)cc3F)c1=O)COC2 [Example 32, 2-(1-(2,4-difluorobenzyl)-4-hydroxy-2-oxo-1,2,5,7-tetrahydrofuro[3,4-b]pyridine-3-carboxamido)acetic acid] | 24800 | 492 | 52.8 | –
O=C(O)CNC(=O)c1c(O)c2c(n(Cc3cc(F)c(F)cc3F)c1=O)COC2 [Example 41, 2-(4-hydroxy-2-oxo-1-(2,4,5-trifluorobenzyl)-1,2,5,7-tetrahydrofuro[3,4-b]pyridine-3-carboxamido)acetic acid] | 41400 | 476 | 87.3 | –
O=C(O)CNC(=O)c1c(O)c2c(n(Cc3ccccc3)c1=O)COC2 [Example 25, 2-(1-benzyl-4-hydroxy-2-oxo-1,2,5,7-tetrahydrofuro[3,4-b]pyridine-3-carboxamido)acetic acid] | – | – | – | 9.2
O=C(O)CNC(=O)c1c(O)c2c(n(Cc3ccc(Cl)cc3F)c1=O)COC2 [Example 52, 2-(1-(4-chloro-2-fluorobenzyl)-4-hydroxy-2-oxo-1,2,5,7-tetrahydrofuro[3,4-b]pyridine-3-carboxamido)acetic acid] | – | – | – | 2.7
O=C(O)CNC(=O)c1c(O)c2c(n(Cc3cnco3)c1=O)COC2 [Example 20, 2-(4-hydroxy-1-(oxazol-5-ylmethyl)-2-oxo-1,2,5,7-tetrahydrofuro[3,4-b]pyridine-3-carboxamido)acetic acid] | – | – | – | 7.4
O=C(N[C@H](CO)C(=O)O)c1c(O)c2c(n(Cc3ccc(C(F)(F)F)cc3)c1=O)COC2 [Example 1, (R)-3-Hydroxy-2-(4-hydroxy-2-oxo-1-(4-(trifluoromethyl)benzyl)-1,2,5,7-tetrahydrofuro[3,4-b]pyridine-3-carboxamido)propanoic acid] | – | – | – | 59.7
O=C(O)CNC(=O)c1c(O)c2c(n(Cc3ccccn3)c1=O)COC2 [Example 36, 2-((3-((carboxymethyl)carbamoyl)-4-hydroxy-2-oxofuro[3,4-b]pyridin-1(2H,5H,7H)-yl)methyl)pyridin-1-ium chloride] | – | – | – | 4.8
Cn1c2c(c(O)c(C(=O)NCC(=O)O)c1=O)COC2 [Example 55, 2-(1-methyl-4-hydroxy-2-oxo-1,2,5,7-tetrahydrofuro[3,4-b]pyridine-3-carboxamido)acetic acid] | – | – | – | 10.4
COC(=O)c1cccc(Cn2c3c(c(O)c(C(=O)NCC(=O)O)c2=O)COC3)c1 [Example 40, 2-(4-hydroxy-1-(3-(methoxycarbonyl)benzyl)-2-oxo-1,2,5,7-tetrahydrofuro[3,4-b]pyridine-3-carboxamido)acetic acid] | – | – | – | 8.1
Cc1cc(Cn2c3c(c(O)c(C(=O)NCC(=O)O)c2=O)COC3)ccc1C#N [Example 44, 2-(1-(4-cyano-3-methylbenzyl)-4-hydroxy-2-oxo-1,2,5,7-tetrahydrofuro[3,4-b]pyridine-3-carboxamido)acetic acid] | – | – | – | 3.1
C[C@H](NC(=O)c1c(O)c2c(n(Cc3ccc(C(F)(F)F)cc3)c1=O)COC2)C(=O)O [Example 3, (S)-2-(4-hydroxy-2-oxo-1-(4-(trifluoromethyl)benzyl)-1,2,5,7-tetrahydrofuro[3,4-b]pyridine-3-carboxamido)propanoic acid] | – | – | – | 36.4
O=C(O)CNC(=O)c1c(O)c2c(n(Cc3cccc(Cl)c3)c1=O)COC2 [Example 38, 2-(1-(3-chlorobenzyl)-4-hydroxy-2-oxo-1,2,5,7-tetrahydrofuro[3,4-b]pyridine-3-carboxamido)acetic acid] | – | – | – | 4.3
Cc1cc(C#N)ccc1Cn1c2c(c(O)c(C(=O)NCC(=O)O)c1=O)COC2 [Example 49, 2-(1-(4-cyano-2-methylbenzyl)-4-hydroxy-2-oxo-1,2,5,7-tetrahydrofuro[3,4-b]pyridine-3-carboxamido)acetic acid] | – | – | – | 5.1
CC(c1ccc(C(F)(F)F)cc1)n1c2c(c(O)c(C(=O)NCC(=O)O)c1=O)COC2 (stereo not shown) [Example 56, 2-(4-hydroxy-2-oxo-1-(1-(4-(trfluoromethyl)phenyl)ethyl)-1,2,5,7-tetrahydrofuro[3,4-b]pyridine-3-carboxamido)acetic acid] | – | – | – | 19.6
CC(C)(C)c1ccc(Cn2c3c(c(O)c(C(=O)NCC(=O)O)c2=O)COC3)cc1 [Example 30, 2-(1-(4-(tert-butyl)benzyl)-4-hydroxy-2-oxo-1,2,5,7-tetrahydrofuro[3,4-b]pyridine-3-carboxamido)acetic acid] | – | – | – | 4
O=C(O)CNC(=O)c1c(O)c2c(n(Cc3ccc4[nH]cnc4c3)c1=O)COC2 [Example 65, 2-(1-((1H-Benzo[d]imidazol-5-yl)methyl)-4-hydroxy-2-oxo-1,2,5,7-tetrahydrofuro[3,4-b]pyridine-3-carboxamido)acetic acid] | – | – | – | 11.8
O=C(O)CNC(=O)c1c(O)c2c(n(Cc3cc[nH]n3)c1=O)COC2 [Example 4, 2-(1-((1H-pyrazol-3-yl)methyl)-4-hydroxy-2-oxo-1,2,5,7-tetrahydrofuro[3,4-b]pyridine-3-carboxamido)acetic acid] | – | – | – | 9.2
N#Cc1cccc(Cn2c3c(c(O)c(C(=O)NCC(=O)O)c2=O)COC3)c1 [Example 34, 2-(1-(3-cyanobenzyl)-4-hydroxy-2-oxo-1,2,5,7-tetrahydrofuro[3,4-b]pyridine-3-carboxamido)acetic acid] | – | – | – | 2.5
